Assay results: patent US20100041672A1, “USE OF QUINOLINE DERIVATIVES IN THE TREATMENT OF PAIN AND IRRITABLE BOWEL SYNDROME” (GLAXO GROUP LIMITED, priority 2007, published 2010)
“Also recorded” adds a separate entry of the source.

Columns and labels:
Random Hooded rats = assay: rat joint pain model of chronic inflammatory pain (intra-articular FCA, hind paw weight bearing); format: in vivo; conditions: for Statistics for hypersensitivity data (weight bearing), significance vs vehicle, Day 13: Day 13 post FCA; for Statistics for hypersensitivity data (weight bearing), significance vs vehicle, Day 17: Day 17 post FCA; for Statistics for hypersensitivity data (weight bearing), significance vs vehicle, Day 14: Day 14 post FCA; for Statistics for hypersensitivity data (weight bearing), significance vs vehicle, Day 15: Day 15 post FCA; for Statistics for hypersensitivity data (weight bearing), significance vs vehicle, Day 16: Day 16 post FCA; for effect on hypersensitivity in the joint pain model of chronic inflammatory pain: once daily oral dosing days 13-17 post intra-articular FCA
Description: Random Hooded rats, 150-180 g, obtained from Charles River UK, were anaesthetised under gaseous anaesthetic and the area surrounding the left and right knee joint shaved and cleaned as for aseptic surgery. Animals were injected with 150 μl of FCA into the left knee joint (intra-articular injection). Animals were immediately allowed to recover from anaesthetic in a warmed/oxygenated environment until being returned to their home cage on paper bedding. No further post-op care was provided.
(§1) Rats were tested prior to surgery and from 18 h post FCA (minimum of once weekly) for weight bearing (g) and joint diameter (mm). Weight bearing is measured by the animal's ability to place body weight across both hind paws on a Dual Channel Weight Averager which was calibrated each day prior to use using a 10 g weight (Rat capacitance tester—Linton Instruments). Hind paw weight bearing data was calculated and expressed as the percentage of the contralateral paw.
All data were expressed as mean±s.e.m.
(§2) Prior to FCA intra-articular injection into the left knee, rats display even weight bearing. By day 1 post-insult weight bearing had shifted such that the majority of the body weight was transmitted through the contralateral limb. By day 10 this effect was maintained and at this point animals were randomised across treatment groups. Once daily dosing with vehicle, SB742457 or celecoxib began on day 13 and continued up to and including day 17.
as §1, with “100” for “10”
as §2, with “SB792988A” for “SB742457”, “17. […] AUC was calculated using Microsoft Excel.” for “17.”

rats = assay: Chronic Constriction Injury (CCI) model of neuropathic pain in rats (mechanical allodynia, Von Frey hairs); format: in vivo, rat; conditions: 10 mg/kg b.i.d. po
Description: Under Isoflurane anaesthesia, the sciatic nerve in the left leg of the rat was exposed at mid thigh level and 4 loose ligatures of Chromic 4.0 gut tied around it. The wound was closed and secured with staples. The Sham operated animals underwent the same surgical technique except that the nerve was not ligated. […] The presence of mechanical (tactile) allodynia was assessed using the manual application of Von Frey hair monofilaments (Stoelting, Wood Dale, Ill., USA). Animals were placed in clear Perspex boxes on a raised perforated metallic platform, from below which the monofilaments were applied in ascending order to the plantar region of the hind paw (range: 1.4 g-26 g). Each hair was applied for approx. 3-5 seconds until a withdrawal response was observed. The lowest hair to give a withdrawal was recorded as the response after confirmation with reapplication of lower and/or higher hairs within the range tested.
All data are expressed as mean±s.e.m. Statistical analysis was carried out using Repeated Measures ANOVA (Statistica Version 6) to compare the vehicle treated groups with the drug treated groups (P<0.05 considered significant). Area Under Curve (AUC) calculations were performed within Excel and statistical analysis was carried out using a one-way ANOVA followed by Fischer LSD post-hoc test (Statistica Version 6) to compare the vehicle treated CCI and Sham groups with the drug treated groups (P<0.05 considered significant). Data recorded in Excel (Microsoft XP) and graphs produced in GraphPad Prism (Version 4).
By 8 days post-surgery neuropathy was beginning to develop as mechanical allodynia (assessed using mVFHs) was evident in all CCI operated groups compared to the Sham operated animals. This was maintained as a stable baseline until day 23 post-surgery (FIG. 12), when the animals were randomised and then chronically dosed with either SB742457 (10 mg/kg b.i.d. po), gabapentin (30 mg/kg b.i.d. po) or vehicle (1% methylcellulose; b.i.d. po) for 8 days (days 26-33 post-surgery). […] Three days after cessation of treatment the withdrawal thresholds of the drug treated groups had decreased back towards vehicle treated baseline levels.

[1] = 0.1 mg/kg oral once daily from day 13, SB792988A study
[2] = 1 mg/kg oral once daily from day 13, SB792988A study
[3] = 3 mg/kg oral once daily from day 13, SB792988A study
[4] = 10 mg/kg oral once daily from day 13, SB792988A study
[5] = 1 mg/kg oral once daily from day 13
[6] = 10 mg/kg oral once daily from day 13

For `Cl.O=S(=O)(c1cccc(F)c1)c1cnc2c(N3CCNCC3)cccc2c1` [SB792988A, 3-[(3-Fluorophenyl)sulfonyl]-8-(1-piperazinyl)quinoline Hydrochloride], the “Statistics for hypersensitivity data (weight bearing), significance vs vehicle, Day 13” value (Random Hooded rats; [1]) was “* (* = p < 0.05)”, the “Statistics for hypersensitivity data (weight bearing), significance vs vehicle, Day 17” value (from here on “Statistics … significance vs vehicle, Day 17”) (Random Hooded rats; [1]) was “* (* = p < 0.05)” and the “Statistics for hypersensitivity data (weight bearing), significance vs vehicle, Day 14” value (“Statistics … significance vs vehicle, Day 14” for short) (Random Hooded rats; [2]) was “* (* = p < 0.05)”. The “Statistics … significance vs vehicle, Day 17” value (Random Hooded rats; [2]) was “* (* = p < 0.05)”, the “Statistics for hypersensitivity data (weight bearing), significance vs vehicle, Day 13” value (Random Hooded rats; [3]) was “** (** = p < 0.01)” and the “Statistics for hypersensitivity data (weight bearing), significance vs vehicle, Day 15” value (“Statistics … significance vs vehicle, Day 15” for short) (Random Hooded rats; [3]) was “*** (*** = p < 0.001)”. The “Statistics for hypersensitivity data (weight bearing), significance vs vehicle, Day 16” value (Random Hooded rats; [3]) was “* (* = p < 0.05)”, the “Statistics … significance vs vehicle, Day 17” value (Random Hooded rats; [3]) was “*** (*** = p < 0.001)” and the “Statistics … significance vs vehicle, Day 14” value (Random Hooded rats; [4]) was “*** (*** = p < 0.001)”. For the same compound, the “Statistics … significance vs vehicle, Day 15” value (Random Hooded rats; [4]) was “*** (*** = p < 0.001)”, the “Statistics for hypersensitivity data (weight bearing), significance vs vehicle, Day 16” value (Random Hooded rats; [4]) was “*** (*** = p < 0.001)” and the “Statistics … significance vs vehicle, Day 17” value (Random Hooded rats; [4]) was “*** (*** = p < 0.001)”. For the same compound, the separation from vehicle (Random Hooded rats; all doses (0.1, 1, 3, 10 mg/kg)) was “significant separation from vehicle on various days”, the “effect compared with the positive control, celecoxib” value (Random Hooded rats; highest doses of 3 and 10 mg/kg vs 30 mg/kg celecoxib) was “not statistically different” and the “effect on hypersensitivity in the joint pain model of chronic inflammatory pain” value (Random Hooded rats) was “reversed hypersensitivity”.

For `O=S(=O)(c1ccccc1)c1cnc2c(N3CCNCC3)cccc2c1` [SB742457, 3-Phenylsulfonyl-8-piperazin-1-yl-quinoline], the “Statistics … significance vs vehicle, Day 17” value (Random Hooded rats; 0.1 mg/kg oral once daily from day 13) was “** (** = p < 0.01)”, the “Statistics for hypersensitivity data, significance vs vehicle, AUC” value (Random Hooded rats; 1 mg/kg oral once daily days 13-17) was “*** (*** = p < 0.001)” and the “Statistics … significance vs vehicle, Day 15” value (Random Hooded rats; [5]) was “*** (*** = p < 0.001)”. For the same compound, the “Statistics … significance vs vehicle, Day 17” value (Random Hooded rats; [5]) was “*** (*** = p < 0.001)”, the “Statistics for hypersensitivity data, significance vs vehicle, AUC” value (Random Hooded rats; 10 mg/kg oral once daily days 13-17) was “*** (*** = p < 0.001)” and the “Statistics … significance vs vehicle, Day 14” value (Random Hooded rats; [6]) was “** (** = p < 0.01)”. The “Statistics … significance vs vehicle, Day 15” value (Random Hooded rats; [6]) was “*** (*** = p < 0.001)”, the “Statistics … significance vs vehicle, Day 17” value (Random Hooded rats; [6]) was “*** (*** = p < 0.001)” and the separation from vehicle (Random Hooded rats; all doses above and including 0.1 mg/kg) was “significant separation from vehicle on at least one day”. The “effect compared with the positive control, celecoxib” value (Random Hooded rats; highest dose of 10 mg/kg vs 30 mg/kg celecoxib) was “not statistically different”, the “effect on hypersensitivity in the joint pain model of chronic inflammatory pain” value (Random Hooded rats) was “reversed hypersensitivity” and the “reversal of mechanical allodynia after 5 days of dosing” value (rats; after 5 days of dosing) was “not significantly different to Sham levels; also recorded: maximal reversal back to Sham levels”. For the same compound, the “reversal of mechanical allodynia after 8 days of dosing” value (rats; after 8 days of dosing) was “maximal reversal (P<0.001) back to Sham levels”, the “time to significant reversal of CCI-induced mechanical allodynia” value (rats; after a single dose) was at most 1 h and the “comparison with the positive control gabapentin (30 mg/kg b.i.d. po)” value (rats; throughout the study) was “not significantly different to each other”.
